Consider nine compounds from patent US11400103B2, “Methods of preventing platelet activation” (Vanderbilt University, priority 2015, dated 2022).

Entries after “also recorded” stand apart in the source; their conditions may differ.

The test system of one assay is COX-1. Briefly: T×B2 in washed platelets by GC/MS as a measure of COX activity. It counts as cell-based, human. The following applies: 5 μM arachidonic acid 2 h; for effect on T×B2 levels: scavenger 1.5 mM; for inhibition at 100 µM: Homo sapiens, Platelet, read-out: inhibition of T×B2 levels. As for the experimental part:
(§1) In vitro platelet activation: Blood obtained from healthy volunteers was collected into vacuum tubes containing citrate, from a peripheral vein using a 21-gauge needle, and washed platelets were prepared as previously described (7). The platelets were counted with a Coulter counter and diluted with resuspension buffer to a final concentration of […], and aliquoted in volumes corresponding to 500 μl. The aliquots were preincubated for 40 min at room temperature with vehicle, the thromboxane synthase inhibitor ozagrel (100 μM), aspirin (100 μM) or the MDA scavengers, SA (1.5 mM) or 3-MoSA (1.5 mM). Next, arachidonic acid (5 μM) was added and the platelets were incubated for an additional 2 h at room temperature. The reactions were stopped by adding indomethacin (100 μM) and the aldehyde scavenger pyridoxamine (1 mM) for 30 min at 4° C., to inhibit all residual COX-1 activity and to prevent formation of MDA adducts on proteins during the purification process, respectively. An aliquot (5 μl) of sample was used for protein estimations using a BCA assay.
(§2) GC/NICI/MS quantification of thromboxane B2. Serum T×B2 (sT×B2) was measured as an indicator of inhibition of platelet COX activity from blood drawn into non-citrated vacuum tubes. Serum from patients was prepared by incubating the blood at 37° C. for 45 min and then centrifuged at 3,200×g for 15 min. Serum was separated and stored at −80° C. until analysis. For ex vivo experiment, 50 μl of washed platelets were used. sT×B2 was assayed by stable isotope dilution gas chromatography/mass spectrometry (GC/MS) with selective ion monitoring as described previously (10).

Assay [1] has as its system human washed platelets. Briefly: LC/MS/MS quantification of scavenger-MDA adducts from washed platelets. It counts as cell-based. The following applies: 1.5 mM scavenger 40 min, then 5 μM arachidonic acid 2 h. The procedure: LC/MS/MS quantification of scavengers-MDA adducts from washed platelet. Washed platelets were activated as described above in the section “ex vivo activation”. The scavenger-MDA adducts were extracted three times with 500 μl of ethyl acetate from 50 μl of the reaction mixture, as described above. The extract was dried down, re-suspended in 100 μl of ACN-water (1:1, v/v), vortexed, and filtered through a 0.22-um spin X column. The reactions were analyzed by LC/MS/MS using the column and gradient as described above. The mass spectrometer was operated in the positive ion mode and the spray voltage was maintained at 5000 V. Nitrogen was used for the sheath gas and auxiliary gas at pressures of 30 and 5 arbitrary units, respectively. The optimized skimmer offset was set at 10, capillary temperature was 300° C. and the tube lens voltage for both compounds was set to 49. Selected reaction monitoring of specific transition ions for the precursor ions at m/z 178→106 (SA-MDA adduct) or m/z 208→136 (3-MoSA-MDA adduct) at −15 eV were used.

Assay [2] concerns human washed platelets. Briefly: Dilysyl-MDA crosslinks in arachidonic acid-activated human washed platelets (LC/MS/MS). In kind it is cell-based. The following applies: preincubation 40 min (ozagrel 100 μM, aspirin 100 μM, SA or 3-MoSA 1.5 mM), then 5 μM arachidonic acid 2 h. As for the experimental part:
as §1
Analysis of Protease-Derived Lysyl-MDA-Lysyl Crosslinks (Dilysyl-MDA Crosslinks) in Washed Platelets by LC/ESI/MS/MS. Samples (around 3 mg of protein) were digested with proteases as previously described for lysyl-lactam adducts (7). In summary, the samples were subsequently heated at 95° C. and allowed to cool at room temperature, before step digestion with pronase (1 mg) at 37° C. for 24 h. Pronase was inactivated by heating samples at 95° C. for 10 min and then cooled to room temperature. Then, 1 μl of […] aminopeptidase was added for every 1 mg of sample protein and incubated at 37° C. for 24 h. Five nanograms of ^13C6-dilysyl-MDA crosslink standard were added to each platelet sample and dilysyl-MDA crosslinks were purified using Oasis cartridge as described above in the section for the preparation of dilysyl-MDA Crosslink standard. The eluate was dried under nitrogen flow to a volume of 100 μl, diluted up to 1 ml with a 0.1% formic acid aqueous solution, and filtered using a 0.22 µm nylon Spin-x centrifuge tube spun at 6,000 rpm for 5 min. Samples were purified by HPLC through the Thermo Scientific Aquasil C18 column. The fractions containing the radioactivity were pooled, concentrated in Oasis HLB cartridge, and then dried under nitrogen to a final volume of 40 μl.
Pooled HPLC fractions concentrated using Oasis were analyzed by LC/MS/MS using an YMC OD-AQ column. […] The gradient was as follows: 0-5 min 100-0% A, 5-7 min 0% A, 7-9 min 0-100% A, 9-15 min 100% A, with a flow rate of 0.2 ml/min. The mass spectrometer was operated in the positive ion mode and the electrospray needle was maintained at 4000 V. Nitrogen was used for both the sheath and auxiliary gas at pressures of 30 and 5 arbitrary units, respectively. […] These settings were used during all experiments, including the validation procedure.

In assay [3] the test system is Human platelets. Briefly: Inhibition of formation of LG adducts in platelets. In kind it is cell-based. The following applies: 1 mM compound, 10 μM dazoxiben 30 min, arachidonic acid 2 h. As for the experimental part:
Human platelets were pre-incubated with 10 μM dazoxiben, a thromboxane synthase inhibitor, and 1 mM of the specified compound or vehicle (control) for 30 min. After incubation, […] arachidonic acid was added for 2 h, and then the proteins were precipitated and digested to single amino acids by step-digestion with proteases. The daughter ions at m/z 332.1 and 84.1 for the lactam were monitored. Values are means±SD (n=9)*P<0.001 vs. control, +P<0.001 vs. 100 μM concentration.

Assay [4] in a line: Rate of reactivity of the scavengers with MDA in vitro (HPLC). Particulars: for formation of MDA adduct of the scavenger relative to MDA-lysine adduct: 37° C., 4 h, MDA ratio 1:1, 0.1 M phosphate pH 7.4, HPLC; for lysine-MDA adducts formation: Lysine and MDA incubated at 37° C. for 4 h in presence of scavenger. As for the experimental part:
Determination of the rate of reactivity of the scavengers with MDA in vitro. N^α-Acetyllysine with or without SA, 3-MoSA or 4-HoBA was incubated at 37° C. in the presence of MDA (ratio 1:1) in 0.1 M phosphate, pH 7.4. After 4 h, 10 μl aliquots were diluted to 200 μl with solvent A and analyzed by HPLC. Solvent A consisted to 20% methanol/0.2% formic acid and solvent B was 99.8% methanol/0.2% formic acid. The gradient was as follows: 0-1 min 100% A, 1-7 min 100-0% A, 7-14 min […]. Phenomenex Kinetex column at a flow rate of 0.2 ml/min and the absorbance at 280 nm were used.

The test system of the next assay is RAW264.7 cells. Briefly: LG-lysyl adduct formation on histones in RAW264.7 cells. It counts as cell-based. Particulars: 500 μM scavenger 45 min, 20 μM AA 1 h, COX-2 stimulated cells. As for the experimental part:
(A). Scavengers were screened in RAW264.7 cells for the ability to decrease LG adduct formation on histones. Scavengers used were glucosamine (GA), 3-methoxysalicylamine (3-MoSA), pentylpyridoxamine (PPM), and 5-ethylsalicylamine (EtSA). Cells were stimulated to express COX-2, pretreated 45 min. with 500 μM scavenger or vehicle (H2O), and given 20 μM AA for 1 h before lysing and extracting histones. Histone proteins were analyzed by LC/ESI/MS/MS for LG-lysyl lactam adduct, n=2.

The test system of assay [5] is Human platelets. The following applies: previously shown (ref 4); cited from earlier work.
Another assay relates to platelet COX1. Put plainly: Serum T×B2 in patients with sickle cell disease (GC/MS). In kind it is in vivo, human. The procedure: as §2
Assay [6] deals with platelets of patients with SCD. Briefly: Platelet dilysyl-MDA crosslinks in patients with sickle cell disease. In kind it is in vivo, human. An excerpt:
Sample collection. Written informed consent was obtained from study participants and human blood was obtained following a protocol approved by the Institutional Review Board of Vanderbilt University. Samples were obtained from three different populations: healthy subjects who had no component of the MetSyn or SCD, patients with MetSyn and patients with SCD. Patients with MetSyn were 35-75 year old and fit the MetSyn criteria in accord with the American Heart Association/National Heart, Lung, and Blood Institute criteria (6). Patients with SCD were 25-50 year old and were homozygous sickle (SS) or compound heterozygote with beta-thalassemia (Sβ-thal) phenotype. […]
In vivo platelet activation: Metabolic Syndrome and Sickle Cell patients. […] Accordingly, the levels of dilysyl-MDA crosslinks in platelets were measured in two conditions in which there is evidence of in vivo platelet activation, metabolic syndrome (MetSyn) (8, 9) and sickle cell disease (SCD) (8, 9), and compared to the levels in platelets from healthy subjects isolated from blood collected in the same conditions. […]
Analysis of Protease-Derived Lysyl-MDA-Lysyl Crosslinks (Dilysyl-MDA Crosslinks) in Washed Platelets by LC/ESI/MS/MS. […] The fractions containing the radioactivity were pooled, concentrated in Oasis HLB cartridge, and then dried under nitrogen to a final volume of 40 μl. […]

On to `CC(=O)O.COc1cccc(CN)c1O` [3-MoSA, 3-methoxysalicylamine acetate], for which the “effect on T×B2 levels” value in the assay with COX-1 is listed as “neither SA nor 3-MoSA significantly affected T×B2 levels”. In the assay on human washed platelets [1], the “formation of scavenger-MDA adducts in activated platelets” value is “concomitant appearance of the equivalent scavenger-MDA adduct”. Moreover, the “levels of dilysyl-MDA crosslinks after platelet activation” value (from here on “levels of dilysyl-MDA crosslinks”) in the assay with human washed platelets [2] (acetate) is given as “decreased levels of dilysysl-MDA crosslinks to baseline levels; also recorded: prevent formation of MDA adducts of platelet proteins”. The “scavenging of LG adducts in the platelet” value in the assay on Human platelets [3] is “active”. For the same compound, in [4], the “formation of MDA adduct of the scavenger relative to MDA-lysine adduct” value worked out at 15.1 fold and the lysine-MDA adducts formation result is reported as “inhibited”. In the assay with RAW264.7 cells, the “effect on LG adducts of histones (nucleus)” value (“effect on LG adducts” below) is “inactive”.

`NCc1ccc(O)cc1` [4-HoBA, 4-hydroxybenzylamine, reference compound]: the “formation of MDA adduct of the scavenger relative to MDA-lysine adduct” value in assay [4] was 0.6 fold.

As to `CCc1ccc(O)c(CN)c1` [EtSA, 5-ethylsalicylamine], the “levels of dilysyl-MDA crosslinks” value with human washed platelets [2] was “as effective as scavengers as was SA; also recorded: prevent formation of MDA adducts of platelet proteins”. In addition, the “effect on LG adducts” value is reported as “blocks LG-lysyl adduct formation on histones” with RAW264.7 cells and “effective scavenger” with RAW264.7 cells (listed as 5-ethylsalicylamine).

Consider `Cc1ccc(O)c(CN)c1` [MeSA, 5-methylsalicylamine], for which, in the assay on human washed platelets [2], the “levels of dilysyl-MDA crosslinks” value was “as effective as scavengers as was SA; also recorded: prevent formation of MDA adducts of platelet proteins”.

Regarding `CC(=O)O.NCc1ccccc1O` [SA, Salicylamine acetate], in the assay on COX-1, the “effect on T×B2 levels” value is “neither SA nor 3-MoSA significantly affected T×B2 levels”. For the same compound, in the assay on human washed platelets [1], the “formation of scavenger-MDA adducts in activated platelets” value is on record as “concomitant appearance of the equivalent scavenger-MDA adduct”. For the same compound, the “levels of dilysyl-MDA crosslinks” value in the assay on human washed platelets [2] (acetate) is listed as “decreased levels of dilysysl-MDA crosslinks to baseline levels; also recorded: prevent formation of MDA adducts of platelet proteins”. In assay [4], the “formation of MDA adduct of the scavenger relative to MDA-lysine adduct” value turned out to be 9.2 fold and the lysine-MDA adducts formation result is reported as “inhibited”. The “formation of levuglandinyl adducts of platelet proteins” value in the assay on Human platelets [5] was “prevent formation of levuglandinyl adducts of platelet proteins”.

Consider `CC(=O)Oc1ccccc1C(=O)O` [aspirin, acetylsalicylic acid, reference compound], for which, in the assay with COX-1, the inhibition at 100 µM turned out to be 96%. The “levels of dilysyl-MDA crosslinks” value with human washed platelets [2] was “reduced levels of the dilysysl-MDA crosslink to baseline levels; also recorded: reduce the dilysyl-MDA crosslinks to the levels in non-activated platelets”.

Regarding `O=C(c1ccccc1)c1ccc2n1CCC2C(=O)O` (stereo not shown) [ketorolac], in the assay with platelet COX1 (SCD patients during ketorolac treatment (from 219.7±183.1 ng/mL)), the “levels of serum T×B2” value came out at 68.9 ± 127.7 ng/mL. In the assay with platelet COX1 (SCD patients, therapeutic use), the “reduction in serum T×B2” value came out at 69%. In addition, the “levels of platelet dilysyl-MDA crosslinks” value in [6] (SCD patients treated with ketorolac during admission for vaso-occlusive crisis) is on record as 3.15±1.18 ng/mg of protein. Besides, in assay [6] (therapeutic use in SCD patients), the “reduction of platelet dilysyl-MDA crosslinks” value was “reduction of dilysyl-MDA crosslinks to the level found in normal platelets”.

On to `O=C(O)/C=C/c1ccc(Cn2ccnc2)cc1` [ozagrel, reference compound], for which the inhibition at 100 µM in the assay with COX-1 stood at 96%. Moreover, the “levels of dilysyl-MDA crosslinks” value with human washed platelets [2] is reported as “reduced levels of the dilysysl-MDA crosslink to baseline levels; also recorded: reduce the dilysyl-MDA crosslinks to the levels in non-activated platelets”.

With pentylpyridoxamine [reference compound], in the assay on Human platelets [3], the “scavenging of LG adducts in the platelet” value was “effective scavenger”. In addition, in the assay with RAW264.7 cells, the “effect on LG adducts” value was “only partially effective”.

The term inhibition denotes the change of the read-out against control, counted positive when it falls.
